Test results published in PubChem BioAssay (NCI).
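Protocol summary: plate cells (96-well), add compound at 5 concentrations, incubate 48 h, interpolate endpoints linearly. At the TGI there is no net growth.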

Assays:
Test in all cases: DTP human tumour cell line panel, 48 h
[1] = system: SNB-78 CNS
[2] = system: ACHN renal
[3] = system: SNB-75 CNS
[4] = system: SN12C renal
[5] = system: DMS 273 small cell lung
[6] = system: MALME-3M melanoma
[7] = system: OVCAR-4 ovarian
[8] = system: HCT-116 colon
[9] = system: HOP-18 NSCLC
[10] = system: UO-31 renal
[11] = system: NCI-H460 lung
[12] = system: LOX IMVI melanoma
[13] = system: NCI-H522 lung
[14] = system: NCI-H226 lung
[15] = system: KM12 colon
[16] = system: UACC-257 melanoma
[17] = system: SK-OV-3 ovarian
[18] = system: SF-268 CNS
[19] = system: SF-539 CNS
[20] = system: A549 NSCLC
[21] = system: NCI-H23 lung
[22] = system: XF 498 CNS
[23] = system: MOLT-4 leukemia
[24] = system: LXFL 529 NSCLC
[25] = system: UACC-62 melanoma
[26] = system: HT29 colon
[27] = system: SF-295 CNS
[28] = system: SK-MEL-5 melanoma
[29] = system: SK-MEL-28 melanoma
[30] = system: M19-MEL melanoma
[31] = system: SK-MEL-2 melanoma
[32] = system: IGROV1 ovarian
[33] = system: DLD-1 colon
[34] = system: OVCAR-3 ovarian
[35] = system: HCT-15 colon
[36] = system: OVCAR-8 ovarian
[37] = system: TK-10 renal
[38] = system: RXF 393 renal
[39] = system: DMS 114 small cell lung
[40] = system: SNB-19 CNS
[41] = system: M14 melanoma
[42] = system: RPMI-8226 leukemia
[43] = system: OVCAR-5 ovarian
[44] = system: CAKI-1 renal
[45] = system: 786-0 renal
[46] = system: EKVX NSCLC
[47] = system: K-562 leukemia
[48] = system: KM20L2 colon
[49] = system: HOP-62 NSCLC
[50] = system: HL-60(TB) leukemia
[51] = system: CCRF-CEM leukemia
[52] = system: HCC-2998 colon
[53] = system: HOP-92 NSCLC
[54] = system: SW-620 colon
[55] = system: A498 renal
[56] = system: COLO 205 colon

## CC(=O)Oc1cc(OC(C)=O)c2c(=O)c3ccccc3[nH]c2c1
[1]
  TGI: > 100 µM
[2]
  TGI: > 100 µM
[3]
  TGI: 92.8 µM
[4]
  TGI: > 100 µM
[5]
  TGI: > 100 µM
[6]
  TGI: 67.9 µM
[7]
  TGI: > 100 µM
[8]
  TGI: > 100 µM
[9]
  TGI: 51.2 µM
[10]
  TGI: 41.6 µM
[11]
  TGI: > 100 µM
[12]
  TGI: > 100 µM
[13]
  TGI: 76.6 µM
[14]
  TGI: 88.9 µM
[15]
  TGI: > 100 µM
[16]
  TGI: 85.1 µM
[17]
  TGI: 49.5 µM
[18]
  TGI: > 100 µM
[19]
  TGI: 47.1 µM
[20]
  TGI: > 100 µM
[21]
  TGI: > 100 µM
[22]
  TGI: 51.9 µM
[23]
  TGI: > 100 µM
[24]
  TGI: > 100 µM
[25]
  TGI: > 100 µM
[26]
  TGI: > 100 µM
[27]
  TGI: > 100 µM
[28]
  TGI: 39.1 µM
[29]
  TGI: > 100 µM
[30]
  TGI: 86.9 µM
[31]
  TGI: > 100 µM
[32]
  TGI: 81.1 µM
[33]
  TGI: > 100 µM
[34]
  TGI: 83.7 µM
[35]
  TGI: > 100 µM
[36]
  TGI: > 100 µM
[37]
  TGI: > 100 µM
[38]
  TGI: > 100 µM
[39]
  TGI: > 100 µM
[40]
  TGI: > 100 µM

## CC/C=C1\N=C(c2ccc(Cl)cc2)OC1=O
[41]
  TGI: > 100 µM
[1]
  TGI: > 100 µM
[2]
  TGI: > 100 µM
[42]
  TGI: > 100 µM
[3]
  TGI: > 100 µM
[4]
  TGI: > 100 µM
[5]
  TGI: > 100 µM
[6]
  TGI: > 100 µM
[7]
  TGI: > 100 µM
[43]
  TGI: > 100 µM
[44]
  TGI: > 100 µM
[10]
  TGI: > 100 µM
[11]
  TGI: > 100 µM
[45]
  TGI: > 100 µM
[12]
  TGI: > 100 µM
[46]
  TGI: > 100 µM
[13]
  TGI: > 100 µM
[47]
  TGI: > 100 µM
[14]
  TGI: > 100 µM
[15]
  TGI: > 100 µM
[48]
  TGI: > 100 µM
[49]
  TGI: > 100 µM
[16]
  TGI: > 100 µM
[17]
  TGI: > 100 µM
[50]
  TGI: > 100 µM
[18]
  TGI: > 100 µM
[19]
  TGI: > 100 µM
[20]
  TGI: > 100 µM
[21]
  TGI: > 100 µM
[22]
  TGI: > 100 µM
[23]
  TGI: > 100 µM
[24]
  TGI: > 100 µM
[25]
  TGI: > 100 µM
[26]
  TGI: > 100 µM
[51]
  TGI: > 100 µM
[27]
  TGI: > 100 µM
[29]
  TGI: > 100 µM
[30]
  TGI: > 100 µM
[52]
  TGI: > 100 µM
[31]
  TGI: > 100 µM
[53]
  TGI: > 100 µM
[54]
  TGI: > 100 µM
[32]
  TGI: > 100 µM
[55]
  TGI: > 100 µM
[33]
  TGI: > 100 µM
[56]
  TGI: > 100 µM
[34]
  TGI: > 100 µM
[35]
  TGI: > 100 µM
[36]
  TGI: > 100 µM
[37]
  TGI: > 100 µM
[38]
  TGI: > 100 µM
[39]
  TGI: > 100 µM
[40]
  TGI: > 100 µM
